In patent US20240165241A1, “TARGETED DELIVERY OF DRUG MOLECULES WITH DRUG LIGANDS CONJUGATED TO RNA NANOPARTICLE MOTION ELEMENTS” (Ohio State Innovation Foundation, priority 2022, published 2024):

What was measured:
KB cells = experiment: PI/Annexin V-FITC apoptosis assay; assay type: cell-based; details: 500 nM, 24 hr
Protocol: Cell apoptosis effect induced by RNA nanoparticles was evaluated using FITC Annexin V Apoptosis Detection Kit (BD Pharmingen) following manufacturer instructions. Briefly, 5×10^4 KB cells were seeded on a 24-well plate overnight. RNA nanoparticles and free MTX were added into 24-well plate at a final concentration of 500 nM. After a 24 hr incubation at 37° C. in a humidified 5% CO2 environment, cells were trypsinized to single cell suspension, washed with PBS buffer twice, and resuspended in 100 μL 1× Annexin V-FITC binding buffer. Following this 5 μL of Annexin V-FITC and 5 μL of PI were added into each sample and incubated at room temperature for 15 min. The samples were then transferred into flow tubes that contained 200 μL of 1× binding buffer for FACS analysis by FACS Calibur™ flow cytometer within 1 hr. Data were analyzed by FlowJo.

[1] = Water solubility of SN38 after conjugation to RNA (absorbance at 366 nm); assay type: physicochemical; details: absorbance at 366 nm versus concentration 12.5-800 μM
Protocol: Three solutions were prepared, RNA-SN38 in DEPC H2O, SN38 in DEPC H2O, and SN38 in DMSO. The absorbance at 366 nm of these three solutions with different concentrations (12.5-800 μM) were measured by NanoDrop 2000 Spectrophotometer (ThermoFisher). […] The picture of RNA-SN38 and SN38 in DEPC H2O at 800 μM were taken for comparison of clarity and turbidity.

SMILES	cells underwent apoptosis (KB cells) [%]	solubility in water [1]
CN(Cc1cnc2nc(N)nc(N)c2n1)c1ccc(C(=O)N[C@@H](CCC(=O)O)C(=O)O)cc1 [MTX, Methotrexate]	69.4	
CCc1c2c(nc3ccc(O)cc13)-c1cc3c(c(=O)n1C2)COC(=O)[C@]3(O)CC [SN38, 7-Ethyl-10-hydroxycamptothecin]		poor water solubility
